Experimental data published in ChEMBL document CHEMBL1201862, “PubChem BioAssay data set” (2004).
The source made the active and inactive calls.

How the values were obtained:
[1] = C. albicans growth with fluconazole, confirmation, fluorescence, retest (AID 2467); format: functional, cell-based
[2] = target: ATP-dependent molecular chaperone HSP82 (Candida albicans (strain WO-1) (Yeast), UniProt C4YTQ8); assay: loss of DOC-induced GRE-beta-galactosidase reporter signal, dose response, Hsp90 inhibitor project, S. cerevisiae, luminescence (AID 2400); format: functional, cell-based;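 further: beta-galactosidase luminescence from glucocorticoid response element reporter as proxy for Hsp90 function; inhibitor potency where signal loss means Hsp90 inhibition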
Chain of ATP-dependent molecular chaperone HSP82 (C4YTQ8 whole entry): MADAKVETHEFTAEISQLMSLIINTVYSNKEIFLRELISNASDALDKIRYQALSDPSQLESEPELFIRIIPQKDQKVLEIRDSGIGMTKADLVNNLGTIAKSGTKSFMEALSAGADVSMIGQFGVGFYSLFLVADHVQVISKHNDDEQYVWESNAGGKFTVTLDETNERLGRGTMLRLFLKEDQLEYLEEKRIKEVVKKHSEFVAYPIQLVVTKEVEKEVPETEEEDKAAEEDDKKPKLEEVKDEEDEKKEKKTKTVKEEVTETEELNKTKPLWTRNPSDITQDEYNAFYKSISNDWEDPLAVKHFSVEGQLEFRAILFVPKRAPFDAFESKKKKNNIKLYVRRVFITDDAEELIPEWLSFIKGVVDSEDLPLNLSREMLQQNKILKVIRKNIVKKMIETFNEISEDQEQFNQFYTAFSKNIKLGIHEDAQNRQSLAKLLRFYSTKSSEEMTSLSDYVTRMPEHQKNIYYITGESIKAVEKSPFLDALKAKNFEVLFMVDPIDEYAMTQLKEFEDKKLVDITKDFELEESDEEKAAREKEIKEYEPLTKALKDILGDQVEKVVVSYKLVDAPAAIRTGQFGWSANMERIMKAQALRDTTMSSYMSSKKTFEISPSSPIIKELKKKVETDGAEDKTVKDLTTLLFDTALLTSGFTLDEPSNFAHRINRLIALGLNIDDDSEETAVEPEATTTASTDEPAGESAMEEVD

[3] = target: T1, Serine/threonine-protein phosphatase (Candida dubliniensis (strain CD36 / CBS 7987 / NCPF 3949 / NRRLY-17841) (Yeast), UniProt B9W6M3); assay: calcineurin pathway inhibitors in yeast reporter, dose response, S. cerevisiae, CDRE-lacZ, luminescence, secondary (AID 2388); format: functional, cell-based;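 further: yeast reporter cells carrying a calcineurin-responsive lacZ construct stimulated with calcium chloride; luminescent beta-galactosidase reporter signal in whole cells rather than isolated phosphatase activity; potency for inhibition where a drop in reporter signal means calcineurin blockade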
T1 sequence (B9W6M3 whole entry): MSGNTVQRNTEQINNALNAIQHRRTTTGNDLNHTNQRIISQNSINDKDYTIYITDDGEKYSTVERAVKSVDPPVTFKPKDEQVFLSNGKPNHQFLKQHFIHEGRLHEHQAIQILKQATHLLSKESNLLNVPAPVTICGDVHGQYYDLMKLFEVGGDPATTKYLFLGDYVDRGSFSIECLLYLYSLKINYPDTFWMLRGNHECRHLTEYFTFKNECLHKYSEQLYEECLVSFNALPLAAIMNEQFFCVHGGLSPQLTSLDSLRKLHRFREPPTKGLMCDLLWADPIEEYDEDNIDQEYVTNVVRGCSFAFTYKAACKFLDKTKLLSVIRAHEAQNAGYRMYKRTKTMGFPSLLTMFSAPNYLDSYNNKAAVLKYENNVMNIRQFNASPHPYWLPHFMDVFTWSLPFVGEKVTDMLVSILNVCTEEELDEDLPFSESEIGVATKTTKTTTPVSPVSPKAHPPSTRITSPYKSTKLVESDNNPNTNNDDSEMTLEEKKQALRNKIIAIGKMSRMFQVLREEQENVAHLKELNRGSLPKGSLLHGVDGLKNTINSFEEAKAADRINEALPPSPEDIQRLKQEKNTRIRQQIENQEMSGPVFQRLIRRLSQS

[4] = NIH-3T3 fibroblast cytotoxicity, dose response, cytotoxicity control, cell-based, fluorescence, Alamar Blue, secondary assay (AID 2327); format: functional;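 further: NIH-3T3 mouse fibroblasts cultured with fluconazole at 8 µg/mL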
[5] = target: T2, Short transient receptor potential channel 4 (Mus musculus, UniProt Q9QUQ5); assay: mouse TRPC4 channel inhibitors, dose response, cell-based, HEK293 TRPC4/mu-opioid, Fluo-4 calcium (AID 434942); format: functional;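 further: potency of inhibitors blocking the TRPC4 calcium response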
T2 sequence (Q9QUQ5 whole entry): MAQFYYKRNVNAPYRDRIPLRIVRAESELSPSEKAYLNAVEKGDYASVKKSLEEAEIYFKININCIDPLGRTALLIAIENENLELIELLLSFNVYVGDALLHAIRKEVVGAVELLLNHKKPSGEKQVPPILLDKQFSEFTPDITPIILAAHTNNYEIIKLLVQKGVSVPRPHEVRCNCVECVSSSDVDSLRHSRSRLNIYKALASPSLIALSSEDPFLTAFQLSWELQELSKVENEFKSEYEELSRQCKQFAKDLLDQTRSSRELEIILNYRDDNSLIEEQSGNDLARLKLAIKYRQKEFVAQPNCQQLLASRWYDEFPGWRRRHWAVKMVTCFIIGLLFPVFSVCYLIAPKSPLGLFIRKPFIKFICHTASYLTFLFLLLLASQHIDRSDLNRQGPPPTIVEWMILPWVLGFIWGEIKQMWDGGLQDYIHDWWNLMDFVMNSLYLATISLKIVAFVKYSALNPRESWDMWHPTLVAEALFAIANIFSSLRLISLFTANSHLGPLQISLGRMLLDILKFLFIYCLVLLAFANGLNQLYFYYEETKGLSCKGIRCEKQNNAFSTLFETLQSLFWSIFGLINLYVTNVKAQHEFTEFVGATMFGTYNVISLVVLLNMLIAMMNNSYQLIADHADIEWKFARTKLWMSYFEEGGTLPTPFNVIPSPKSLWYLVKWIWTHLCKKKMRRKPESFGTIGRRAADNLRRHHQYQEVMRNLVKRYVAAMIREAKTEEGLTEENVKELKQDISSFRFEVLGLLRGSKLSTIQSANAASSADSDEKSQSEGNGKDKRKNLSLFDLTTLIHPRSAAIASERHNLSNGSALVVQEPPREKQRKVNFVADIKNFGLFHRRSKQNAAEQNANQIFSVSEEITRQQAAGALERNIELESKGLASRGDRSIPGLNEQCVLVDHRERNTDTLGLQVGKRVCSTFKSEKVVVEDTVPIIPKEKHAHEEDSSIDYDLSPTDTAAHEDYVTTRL

[6] = cells; format: functional
[7] = target: T3, Interleukin-1 receptor-associated kinase 4 (Homo sapiens, UniProt Q9NWZ3); format: functional
T3 sequence (Q9NWZ3 whole entry): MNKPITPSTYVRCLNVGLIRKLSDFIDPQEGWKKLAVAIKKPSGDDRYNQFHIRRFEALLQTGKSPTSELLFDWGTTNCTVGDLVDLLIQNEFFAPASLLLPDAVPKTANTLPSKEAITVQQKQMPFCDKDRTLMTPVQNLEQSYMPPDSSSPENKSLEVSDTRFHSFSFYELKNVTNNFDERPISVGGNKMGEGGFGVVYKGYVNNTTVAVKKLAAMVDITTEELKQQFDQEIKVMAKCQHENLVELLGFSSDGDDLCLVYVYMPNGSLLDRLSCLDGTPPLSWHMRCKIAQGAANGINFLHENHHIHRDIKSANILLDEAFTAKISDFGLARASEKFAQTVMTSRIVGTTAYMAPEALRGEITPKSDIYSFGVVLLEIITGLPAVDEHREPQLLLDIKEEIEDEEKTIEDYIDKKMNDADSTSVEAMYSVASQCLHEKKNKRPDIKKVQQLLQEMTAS

[8] = target: Serine/threonine-protein kinase pim-1 (Homo sapiens, UniProt P11309); format: functional
Chain of Serine/threonine-protein kinase pim-1 (P11309 whole entry): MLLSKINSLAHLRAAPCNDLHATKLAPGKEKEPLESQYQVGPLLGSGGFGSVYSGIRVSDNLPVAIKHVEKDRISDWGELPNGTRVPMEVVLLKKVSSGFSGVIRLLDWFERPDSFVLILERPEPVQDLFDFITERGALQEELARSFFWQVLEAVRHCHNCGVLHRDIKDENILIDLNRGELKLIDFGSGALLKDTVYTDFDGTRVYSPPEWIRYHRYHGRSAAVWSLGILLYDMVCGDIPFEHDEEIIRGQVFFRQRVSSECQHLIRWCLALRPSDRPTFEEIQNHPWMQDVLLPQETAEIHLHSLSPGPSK

[9] = target: Glycogen synthase kinase-3 beta (Homo sapiens, UniProt P49841); format: functional;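 further: value comes from a broad kinome profiling panel, with GSK3B as the panel member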
Chain of Glycogen synthase kinase-3 beta (P49841 whole entry): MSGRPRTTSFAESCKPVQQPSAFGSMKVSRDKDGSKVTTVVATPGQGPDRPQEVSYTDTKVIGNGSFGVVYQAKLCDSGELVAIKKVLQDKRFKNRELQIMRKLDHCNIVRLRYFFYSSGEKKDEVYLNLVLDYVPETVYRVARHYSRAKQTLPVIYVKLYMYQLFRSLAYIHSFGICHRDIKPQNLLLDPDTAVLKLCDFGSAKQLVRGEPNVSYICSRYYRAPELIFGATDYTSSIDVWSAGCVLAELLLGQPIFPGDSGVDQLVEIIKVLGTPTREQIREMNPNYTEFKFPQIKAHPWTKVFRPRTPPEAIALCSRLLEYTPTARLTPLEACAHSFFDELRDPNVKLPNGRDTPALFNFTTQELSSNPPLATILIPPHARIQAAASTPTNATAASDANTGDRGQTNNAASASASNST

[10] = target: Mitogen-activated protein kinase kinase kinase kinase 4 (Homo sapiens, UniProt O95819); format: functional
Chain of Mitogen-activated protein kinase kinase kinase kinase 4 (O95819 whole entry): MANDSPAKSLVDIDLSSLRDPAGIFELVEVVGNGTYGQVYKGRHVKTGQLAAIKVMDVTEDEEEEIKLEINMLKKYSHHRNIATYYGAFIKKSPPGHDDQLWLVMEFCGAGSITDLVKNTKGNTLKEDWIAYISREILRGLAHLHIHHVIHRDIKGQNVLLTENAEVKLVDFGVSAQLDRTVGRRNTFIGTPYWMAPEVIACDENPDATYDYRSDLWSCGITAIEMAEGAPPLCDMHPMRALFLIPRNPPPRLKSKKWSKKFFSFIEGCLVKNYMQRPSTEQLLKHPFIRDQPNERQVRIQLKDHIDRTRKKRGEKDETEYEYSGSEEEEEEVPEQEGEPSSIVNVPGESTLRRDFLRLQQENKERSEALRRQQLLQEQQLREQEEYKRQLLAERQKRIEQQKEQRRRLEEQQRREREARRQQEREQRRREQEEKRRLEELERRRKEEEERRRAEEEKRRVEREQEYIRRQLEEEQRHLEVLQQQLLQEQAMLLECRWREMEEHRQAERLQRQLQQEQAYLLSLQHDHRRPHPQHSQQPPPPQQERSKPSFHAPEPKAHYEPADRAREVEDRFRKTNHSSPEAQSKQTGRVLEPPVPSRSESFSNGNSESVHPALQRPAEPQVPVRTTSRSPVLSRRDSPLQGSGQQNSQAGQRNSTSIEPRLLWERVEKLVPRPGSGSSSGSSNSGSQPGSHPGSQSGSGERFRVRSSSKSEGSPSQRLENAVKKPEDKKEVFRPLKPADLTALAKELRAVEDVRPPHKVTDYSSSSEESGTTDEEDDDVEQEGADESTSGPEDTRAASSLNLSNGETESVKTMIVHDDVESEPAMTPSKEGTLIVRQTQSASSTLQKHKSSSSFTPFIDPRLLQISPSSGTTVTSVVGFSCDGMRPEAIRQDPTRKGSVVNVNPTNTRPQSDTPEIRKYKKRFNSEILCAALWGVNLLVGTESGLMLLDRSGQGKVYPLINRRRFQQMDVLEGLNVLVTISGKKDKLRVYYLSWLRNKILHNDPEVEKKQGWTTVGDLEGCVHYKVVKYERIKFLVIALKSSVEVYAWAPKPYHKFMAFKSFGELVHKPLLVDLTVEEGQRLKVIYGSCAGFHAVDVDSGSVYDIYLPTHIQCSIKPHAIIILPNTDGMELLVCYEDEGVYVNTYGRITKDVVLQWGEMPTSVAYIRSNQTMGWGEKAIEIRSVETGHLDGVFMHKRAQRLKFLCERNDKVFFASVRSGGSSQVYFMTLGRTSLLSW

[11] = target: Homeodomain-interacting protein kinase 2 (Homo sapiens, UniProt Q9H2X6); format: functional;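 further: measured within a kinome-wide kinase profiling panel, HIPK2 being one panel member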
Chain of Homeodomain-interacting protein kinase 2 (Q9H2X6 whole entry): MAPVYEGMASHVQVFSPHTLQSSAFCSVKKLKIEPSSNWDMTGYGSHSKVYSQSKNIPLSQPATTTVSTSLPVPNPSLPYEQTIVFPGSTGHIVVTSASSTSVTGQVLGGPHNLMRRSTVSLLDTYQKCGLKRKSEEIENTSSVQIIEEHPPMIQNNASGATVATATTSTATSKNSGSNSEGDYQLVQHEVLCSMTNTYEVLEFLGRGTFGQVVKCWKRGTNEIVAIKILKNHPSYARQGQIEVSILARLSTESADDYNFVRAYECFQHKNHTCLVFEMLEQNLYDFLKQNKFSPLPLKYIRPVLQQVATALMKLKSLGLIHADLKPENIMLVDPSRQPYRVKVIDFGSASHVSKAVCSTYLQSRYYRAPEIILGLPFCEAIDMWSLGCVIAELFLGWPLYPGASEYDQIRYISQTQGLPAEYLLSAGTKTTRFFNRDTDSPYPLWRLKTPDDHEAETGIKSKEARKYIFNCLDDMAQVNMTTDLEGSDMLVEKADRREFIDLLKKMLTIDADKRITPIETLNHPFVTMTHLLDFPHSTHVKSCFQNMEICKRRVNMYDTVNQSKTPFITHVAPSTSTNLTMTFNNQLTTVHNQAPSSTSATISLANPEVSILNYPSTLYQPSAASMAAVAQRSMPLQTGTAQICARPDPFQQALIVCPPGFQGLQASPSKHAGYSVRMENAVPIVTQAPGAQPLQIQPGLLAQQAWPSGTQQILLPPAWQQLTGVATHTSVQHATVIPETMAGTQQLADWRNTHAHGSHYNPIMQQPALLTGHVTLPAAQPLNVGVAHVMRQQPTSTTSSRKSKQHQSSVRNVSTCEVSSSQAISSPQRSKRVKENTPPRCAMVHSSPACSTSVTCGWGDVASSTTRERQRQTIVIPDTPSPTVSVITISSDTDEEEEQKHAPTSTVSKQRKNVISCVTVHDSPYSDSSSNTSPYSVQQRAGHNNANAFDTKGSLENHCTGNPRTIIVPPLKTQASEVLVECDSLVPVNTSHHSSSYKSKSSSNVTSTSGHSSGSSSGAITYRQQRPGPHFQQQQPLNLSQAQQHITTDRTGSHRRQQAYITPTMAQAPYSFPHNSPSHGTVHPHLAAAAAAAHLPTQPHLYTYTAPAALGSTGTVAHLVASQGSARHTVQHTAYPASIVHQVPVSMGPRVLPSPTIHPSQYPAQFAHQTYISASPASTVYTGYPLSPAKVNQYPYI

[12] = target: cAMP-dependent protein kinase catalytic subunit alpha (Homo sapiens, UniProt P17612); format: functional
[13] = target: Dual specificity protein kinase CLK4 (Homo sapiens, UniProt Q9HAZ1); format: functional
Chain of Dual specificity protein kinase CLK4 (Q9HAZ1 whole entry): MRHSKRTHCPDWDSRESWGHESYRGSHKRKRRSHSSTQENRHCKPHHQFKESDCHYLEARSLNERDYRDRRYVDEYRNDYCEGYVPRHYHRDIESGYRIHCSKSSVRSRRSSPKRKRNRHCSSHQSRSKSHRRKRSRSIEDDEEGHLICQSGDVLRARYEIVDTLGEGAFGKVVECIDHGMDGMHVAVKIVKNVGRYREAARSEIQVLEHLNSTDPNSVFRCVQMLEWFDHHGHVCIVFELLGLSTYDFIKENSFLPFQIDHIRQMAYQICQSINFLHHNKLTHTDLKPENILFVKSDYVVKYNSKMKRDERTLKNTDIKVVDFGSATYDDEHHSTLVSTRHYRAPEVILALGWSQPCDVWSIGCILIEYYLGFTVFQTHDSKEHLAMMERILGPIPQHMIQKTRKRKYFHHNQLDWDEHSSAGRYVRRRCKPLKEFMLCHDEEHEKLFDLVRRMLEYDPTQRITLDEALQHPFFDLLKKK

[14] = target: Cell division cycle 7-related protein kinase (Homo sapiens, UniProt O00311); format: functional;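 further: value obtained from a kinome-wide kinase panel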
Chain of Cell division cycle 7-related protein kinase (O00311 whole entry): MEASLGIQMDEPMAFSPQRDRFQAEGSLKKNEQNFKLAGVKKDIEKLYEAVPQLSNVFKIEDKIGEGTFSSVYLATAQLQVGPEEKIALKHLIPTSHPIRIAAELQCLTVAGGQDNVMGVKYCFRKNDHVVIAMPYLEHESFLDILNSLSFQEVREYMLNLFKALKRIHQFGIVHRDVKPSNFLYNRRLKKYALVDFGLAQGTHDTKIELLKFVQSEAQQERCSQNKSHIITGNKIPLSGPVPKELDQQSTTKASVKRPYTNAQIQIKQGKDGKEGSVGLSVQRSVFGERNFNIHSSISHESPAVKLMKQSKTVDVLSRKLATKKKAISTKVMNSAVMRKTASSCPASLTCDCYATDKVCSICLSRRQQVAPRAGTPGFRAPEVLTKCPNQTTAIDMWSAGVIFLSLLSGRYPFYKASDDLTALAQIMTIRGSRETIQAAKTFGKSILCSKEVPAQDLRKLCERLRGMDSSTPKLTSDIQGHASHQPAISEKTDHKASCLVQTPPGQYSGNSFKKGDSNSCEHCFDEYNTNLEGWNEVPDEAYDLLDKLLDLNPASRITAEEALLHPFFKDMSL

[15] = cells; format: functional, cell-based
[16] = Luminescence Cell-Based Dose Response HTS to Identify Inhibitors of 5'UTR Stem-Loop Driven Prion Protein mRNA Translation in H4 Neuroglioblastoma Cells. [Related pubchem assays: 1827 (Project Summary), 1813 (Primary HTS)]; format: functional
[17] = inhibitors of SNCA 5'UTR-driven reporter translation, confirmation, H4 neuroglioma cells, luminescence (AID 1988); format: functional, cell-based
[18] = system: Streptococcus; assay: Group A Streptococcus viability loss, dose response, counter-screen for streptokinase expression inhibitor project, luminescence, BacTiterGlo (AID 1915); format: functional, organism-based;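 further: potency for reduction of bacterial viability or growth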
[19] = target: Heat shock protein HSP 90-alpha (Homo sapiens, UniProt P07900); format: functional, organism-based
[20] = HepG2 cell cytotoxicity, dose response, cytotoxicity control for Shn3 inhibitor project, CellTiter-Glo, cherry-picked (AID 624134); format: functional, cell-based
[21] = control 3'UTR Renilla luciferase suppression, dose response, counter-screen for Shn3 inhibitor project, cell-based, Clone20-Shn3RL, cherry-picked (AID 624133); format: functional
[22] = Shn3 3'UTR reporter inhibitors, dose response, cell-based, Clone20 osteoblasts, firefly luciferase, cherry-picked (AID 624132); format: functional;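 further: firefly luciferase luminescence from reporter carrying the Shn3 3'UTR in osteoblasts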
[23] = cytotoxicity toward NIH3T3 fibroblasts, dose response, counter-screen, cell-based, ATP luminescence, mouse fibroblasts (AID 2010); format: functional;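 further: cells exposed to compound for about 90 hours before reading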
[24] = system: INS1; assay: beta cell apoptosis inhibitors, cytokine rescue, dose response, luminescence, retest (AID 449756); format: functional, cell-based; settings: Rattus norvegicus;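 further: cell death triggered by IL-1 beta plus TNF-alpha plus IFN-gamma mixture; protective hits raise ATP signal compared with cytokine alone wells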
[25] = target: T4, Streptokinase A (Streptococcus pyogenes serotype M1, UniProt P10520); assay: S. pyogenes streptokinase expression inhibitors, potency, dose response, plasminogen activation absorbance, OD405 (AID 1914); format: functional, Streptococcus pyogenes M1 GAS;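 further: secreted streptokinase activity via plasminogen activation per viability signal from cell pellet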
T4 sequence (P10520 whole entry): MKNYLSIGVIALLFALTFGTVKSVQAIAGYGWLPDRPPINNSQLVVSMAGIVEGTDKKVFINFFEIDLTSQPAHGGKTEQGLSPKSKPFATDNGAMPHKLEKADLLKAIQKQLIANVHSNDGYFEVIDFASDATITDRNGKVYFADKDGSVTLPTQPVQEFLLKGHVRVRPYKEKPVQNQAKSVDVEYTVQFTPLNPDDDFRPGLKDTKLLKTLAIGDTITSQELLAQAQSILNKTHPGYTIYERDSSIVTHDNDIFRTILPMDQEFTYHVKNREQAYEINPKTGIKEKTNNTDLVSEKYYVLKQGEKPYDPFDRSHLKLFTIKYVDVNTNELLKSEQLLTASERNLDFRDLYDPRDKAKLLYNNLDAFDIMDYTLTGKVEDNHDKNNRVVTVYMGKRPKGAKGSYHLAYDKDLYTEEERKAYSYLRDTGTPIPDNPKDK

[26] = system: Streptococcus sp. 'group A'; assay: growth inhibition of control SK(-) GAS strain, dose response, counter-screen for streptokinase expression inhibitor project, luminescence, kanamycin, BacTiterGlo, confirmation (AID 1900); format: functional, organism-based
[27] = inhibitors of intracellular T. cruzi replication, confirmation, NIH3T3 host cells, beta-gal luminescence (AID 2044); format: functional, cell-based;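 further: intracellular parasites grown in NIH/3T3 mouse fibroblasts as host cells; luminescent beta-galactosidase reporter signal from transgenic T. cruzi replicating inside host cells; inhibitors lower the luminescence signal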
[28] = inhibitors of firefly luciferase expression or activity, dose response, H4 neuroglioma cells, luminescence (AID 1990); format: functional, cell-based
[29] = cells; format: functional, cell-based; remark: listed apart in the source
[30] = microbe, parasite or virus in culture; format: functional; settings: Mycobacterium tuberculosis
[31] = THP-1 cell cytotoxicity, dose response, cytotoxicity control for non-replicating M. tuberculosis project (AID 489025); format: functional
[32] = Vero E6 cell cytotoxicity, dose response, cytotoxicity control for non-replicating M. tuberculosis project, secondary assay (AID 492998); format: functional, VeroE6; settings: Vero C1008
[33] = HepG2 cell cytotoxicity, dose response, cytotoxicity control for non-replicating M. tuberculosis project (AID 489018); format: functional; settings: Mycobacterium tuberculosis

CCCCCCCNC(=O)COc1ccc2c(c1)C(=O)CC(C)(C)O2
EC50 [1]: 2280 nM (active) | EC50 [2]: > 160000 nM (inactive) | EC50 [3]: > 180000 nM (inactive) | EC50 [4]: > 160000 nM (inactive) | EC50 [5]: 944 nM (active)

Cc1cc(Br)ccc1OCC(=O)NNC(=O)C(=O)Nc1ccccc1
EC50 [1]: 526 nM (active) | EC50 [2]: > 150000 nM (inactive) | EC50 [3]: > 180000 nM (inactive) | IC50 [6]: 12200 nM (active) | EC50 [4]: > 150000 nM (inactive)

CCCCOc1cc(-c2ccncc2)cc2[nH]nc(N)c12
Ki [7]: 631 nM (active) | Ki [8]: 1580 nM (active) | Ki [9]: 631 nM (active) | Ki [10]: 251 nM (active) | Ki [11]: 794 nM (active) | Ki [12]: 1260 nM (active) | Ki [13]: 10 nM (active) | Ki [14]: 15.8 nM (active)

Oc1c(CN2CCN(c3ccc(F)cc3)CC2)cc(Cl)c2cccnc12
EC50 [15]: > 350000 nM (not active) | EC50 [1]: 693 nM (active) | EC50 [16]: 157 nM (active) | EC50 [2]: > 160000 nM (inactive) | EC50 [17]: 192 nM (active) | EC50 [18]: 10800 nM (active) | AC50 [19]: 7920 nM (active) | AC50 [20]: > 70000 nM (inactive) | EC50 [3]: > 180000 nM (inactive) | AC50 [21]: 534 nM (active) | EC50 [4]: 26100 nM (active) | AC50 [22]: 1320 nM (active) | EC50 [23]: 8200 nM (active) | AC50 [24]: 1270 nM (active) | EC50 [25]: > 150000 nM (not active) | EC50 [26]: 1560 nM (active) | EC50 [27]: 465 nM (active) | EC50 [28]: 200 nM (active) | EC50 [29]: 69400 nM (active)

CCOc1ccc(-c2ccc(NS(=O)(=O)c3ccc([N+](=O)[O-])cc3)cc2)nn1
EC50 [1]: 2360 nM (active) | EC50 [2]: > 150000 nM (inactive) | EC50 [3]: > 180000 nM (inactive) | EC50 [4]: 50700 nM (active)

O=c1c2ccc(Cl)cc2nc(-c2ccc([N+](=O)[O-])cc2)n1O
CC50 [30]: 21400 nM (active) | EC50 [1]: 430 nM (active) | EC50 [2]: 44600 nM (active) | EC50 [3]: > 180000 nM (inactive) | CC50 [31]: 11800 nM (active) | IC50 [6]: 8170 nM (active) | EC50 [4]: 99400 nM (active) | CC50 [32]: 12100 nM (active) | CC50 [33]: 16800 nM (active)

C=CCNc1cc(-c2c[nH]c3ncccc23)cc(Cl)n1
Ki [7]: 631 nM (active) | Ki [8]: 794 nM (active) | Ki [9]: 100 nM (active) | Ki [11]: 50.1 nM (active) | Ki [12]: 398 nM (active) | Ki [13]: 3.98 nM (active) | Ki [14]: 0.794 nM (active)
